How the values were obtained:
[1] = Acute toxicity in the mouse by the I.P. route; assay type: in vivo; conditions: in vivo, ip
From the text: The acute toxicity was studied in the mouse by the I.P. route. It is expressed in the form of DL-50 (lethal dose involving the death of half of the animals) or DL-0 (maximum non-lethal dose).

[2] = Veinous thrombosis: veinous anti-thrombus activity; assay type: in vivo; conditions: Rattus norvegicus, ip, 50 mg/kg IP, 4 to 5 hours after administration, read-out: Diminution of veinous thrombus
[3] = Anti-ulcer activity: ulcer caused by aspirin; assay type: in vivo, rat (male Wistar); conditions: 100 mg/kg I.P.; aspirin 192 mg/kg per os; standardised to control batch and cimetidine (index 1)
In short: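 Male Wistar rats weighing 180 to 200 g were fasted from t=0, when they received a first dose of the test product. At t=18 hours they were given 2 ml of an ulcer-forming suspension of aspirin at 192 mg/kg per os, followed by a second dose of the product. At t=22 hours the animals were sacrificed and their ulcers graded: 1 for small point-like, 3 for more extensive, 9 for highly extensive or very deep. Scores were standardised against a control batch and against cimetidine, the reference, assigned index 1.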

[4] = tested on: blood platelet aggregation; experiment: Spontaneous aggregation: blood platelet anti-aggregation activity; assay type: in vivo, rat (adult male); conditions: Platelet, ip; 100 mg/kg I.P., t=5 hours, rat
Description: The technique used is that of Sanders described in Laboratory Animal Science 27 (No. 5), pages 757-761 (1977).
After administration at 100 mg/kg I.P. (unless specified to the contrary in Table V hereinbelow) of the product to be tested to adult male reproducing rats, two blood samples are taken, one on sodium citrate and the other on sodium citrate treated with formaldehyde at instant t=5 hours.
After centrifugation of the samples, a platelet count is made on the supernatant liquid. The spontaneous aggregation index according to Wu and Hook Stroke 6, 521-524 (1975) is expressed by the relation: [formula]

[5] = Veinous thrombosis: veinous anti-thrombus activity; assay type: in vivo; conditions: Rattus norvegicus, ip, 100 mg/kg I.P., 4 to 5 hours after administration, read-out: Diminution of veinous thrombus
Description: The technique used is similar to the one described by Peterson-Zucker in Thrombo.Diath.Haemorh. 23, 1, (1970).
An occlusive thrombus is created in the […] vena cava of a rat by the combined action of an endothelial alteration and a veinous stasis for 15 mins. and 4 to 5 hours after administration of the product to be tested (100 mg/kg I.P.).

[6] = Anti-hypoxic activity: survival to hypoxia (nitrogen-oxygen 95:5); assay type: in vivo, mouse (Swiss male); conditions: I.P., 1/10th of LD-50 or 100 mg/kg when LD-0 ≥ 800 mg/kg; up to 15 minutes; mouse
In short: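 Groups of 20 male Swiss mice (20–30 g) received compound i.p. at 1/10 LD-50, or 100 mg/kg when LD-0 ≥800 mg/kg, then were placed in nitrogen-oxygen 95:5 v/v. Survival time was recorded up to 15 min and expressed as % survival versus untreated controls; Duxil reference given at 18 mg/kg i.p.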

SMILES	LD50 ([1]; I.P., read-out: DL-50 (lethal dose involving the death of half of the animals)) [mg/kg]	inhibition in vivo at 50 mg/kg [2] [%]	DL-0 (maximum non-lethal dose) [1] [mg/kg IP]	Ulcer index [3]	inhibition in vivo at 100 mg/kg [4] [%]	inhibition in vivo at 100 mg/kg [5] [%]	Survival (survival percentage to hypoxic aggression) [6]
Cc1ccc(C(O)c2cccc(O[C@@H]3OC[C@@H](O)[C@H](O)[C@H]3O)c2)cc1 (single isomer, unassigned) [Example 106]	500	≥ 50	–	–	–	–	–
Cc1cc(C(=O)c2ccccc2Cl)cc(C)c1O[C@@H]1OC[C@@H](O)[C@H](O)[C@H]1O [Example 102]	–	–	> 800	0.49	≥ 40	30 to 49	+++ (higher than or equal to 80%)

Reference: patent US4432973A, “Benzoyl- and α-hydroxybenzyl-phenyl-glycosides and application thereof in therapeutics” (Societe de Recherches Industrielles (S.O.R.I.), priority 1980, dated 1984)
